Literature values as cited in patent US20250352557A1, “COMPOSITIONS FOR PERITONEAL DRUG DELIVERY AND METHODS OF USE THEREOF” (Viramal Limited, priority 2023, published 2025).

Legend:
[1] = not given; remark: listed apart in the source
[2] = vaginal administration; previously refractory patients

Row | Compound | Log P | Bioavailability with intake of foods high in fat ([1]; oral) | Time at which peak-plasma concentrations are reached ([1]; oral (Danatrol form)) [h] | Peak-plasma concentrations ([1]; oral (Danatrol form), absorbed from the gastrointestinal tract) [ng/mL] | Average consumption of pain relief tablets (e.g., naproxen) reduced by [2] [%] | Patient satisfaction [2] [%]
1 | CC(=O)[C@H]1CC[C@H]2[C@@H]3CCC4=CC(=O)CC[C@]4(C)[C@H]3CC[C@]12C [progesterone] | 3.82 |  |  |  |  | 
2 | C#C[C@]1(O)CC[C@H]2[C@@H]3CCC4=Cc5oncc5C[C@]4(C)[C@H]3CC[C@@]21C [Danazol, 17α-Pregna-2,4-dien-20-yno [2,3-d]-isoxazol-17-ol] |  | tripled | 2 to 3 | 50 to 80 | 60 | 80
